# In patent US20250090501A1, “METHODS OF TREATING GUT MOTILITY DISORDERS” (THE REGENTS OF THE UNIVERSITY OF CALIFORNIA, priority 2022, published 2025):
# Assays:
# mouse colon = test: Ex vivo colonic motility assay (organ bath, GIMM); conditions: for CMMC intervals relative to the untreated condition: first experiment, five consecutive 10-min acquisitions, interval at 75th percentile
# Procedure: Preparation of solutions: Krebs buffer [NaCl (117 mM), KCl (4.7 mM), NaH2PO4 (1.2 mM), MgCl2 (1.5 mM), CaCl2·2H2O (2.5 mM), NaHCO3 (25 mM), Glucose (11 mM), pH 7.4] was placed in a 37° C. water bath and aerated with 95% 02 and 5% CO2 (carbogen) gas mixture for at least 30 minutes prior to experiment onset. “Drug” treatment solutions were freshly prepared by adding the drug compound into Krebs buffer before starting data acquisition. The solution with NOS1 inhibitor was prepared by adding N omega-nitro-L-arginine methyl ester hydrochloride (L-NAME) to the drug solutions making “Drug+L-NAME”.
# Tissue dissection: For each experimental replicate, a pair of 8-week-old wild type C57BL6 mice (male) were placed in a sealed chamber and euthanized using CO2 asphyxiation followed by cervical dislocation. The lower GI tract (cecum and colon) was removed and immediately transferred to 37° C. carbogenated Krebs buffer, with the fecal matter still inside. Adipose tissue and mesentery were removed before placing the colons in the organ bath reservoir of gastrointestinal motility monitor (GIMM) apparatus.
# Experimental set-up and procedure: GIMM was designed based on a previously reported model (Swaminathan et al., 2016). The organ reservoir of GIMM has two-chambers for recording two specimens simultaneously. It is connected to working solutions kept at 37° C. via a 4-channel peristaltic pump (WPI, PERIPRO-4LS). Lower GI tract was harvested and transferred to the organ bath with the Krebs buffer was flowing through. The cecum was pinned down at the proximal tip and the distal end of the colon was pinned through the serosa/mesentery. Five 10-min (for the first experiments) or sequential 6-min (for the sequential drug treatment in the presence and absence of L-NAME) videos were recorded using the IC capture software (Imaging Source) with a high resolution monochromatic firewire industrial camera (Imaging Source®, DMK41AF02) connected to a ⅔″ 16 mm f/1.4 C-Mount Fixed Focal Lens (Fujinon HF16SA1). While tissue in the control chamber was only exposed to Krebs solution, the order of solutions in the experimental chamber was: Krebs, drug compound, Krebs (6 min each), L-NAME (2 min), L-NAME in the presence of a drug compound (6 min) and Krebs (6 min). The chambers were cleaned after each acquisition.
# Data and statistical analysis: VolumetryG9a was used to generate the spatiotemporal map (STM) of each acquisition (Spear et al., 2018). Slow waves (SW) and colonic migrating motor complexes (CMMC) data were generated from STMs. Statistical analyses were performed using PRISM.
# For selected compounds, a more comprehensive and integrated target analysis was performed by combining reported experimental data (Binding DB) and computational methods (SEA, Carlsbad, Dinies, Swisstarget, Superdrug, Pubchem Bioassays, FIG. 2G). The effects of these compounds was tested on colonic motility in organ bath assays (FIG. 2H). In these assays, resected segments of mouse colon were maintained in a physiologic buffer to study motility patterns using video recording. In the first experiment the effect of all selected drug candidates was tested on mouse colonic motility, ex vivo (FIG. 2I). In each experiment, an untreated control and a drug-treated colon sample were tested side by side during five consecutive 10-min acquisitions. For each acquisition, instead of analyzing fecal outputs, which are generally variable, more sophisticated contraction analysis was performed by generating spatiotemporal maps from video data based on the changes in the colonic diameter over time, and used to calculate the rate of colonic migrating motor complexes (CMMC) and slow waves (SW).
# [1] = tested on: stage 1 NOS1::GFP enteric ganglioids; test: NO neuron induction in stage 1 enteric ganglioids (flow cytometry); format: cell-based, human; conditions: for NO neuron induction / NO neuron proportions in response to RTK ligands: stage 1 enteric ganglioids
# Procedure: List of antibodies and working dilutions is not shown.
# (§1) To identify compounds that induce NO neuron differentiation, enteric crestospheres were treated with 1694 compounds in the Selleck inhibitor Library™ and 12 hit compounds that increased the proportion of NOS1^+ neurons by at least eight folds were identified (FIG. 7A and FIG. 8A-B). […] After clustering the predicted protein targets, common patterns emerged for a subset of compounds.
# To determine the mechanism by which PP121 induced NO neuron enrichment in ganglioids, a combination of pharmacological and genetic approaches was used. […] The crestosphere snRNA-seq analysis confirmed the expression of PDGFRA, PDGFRB, ERBB2, and ERBB3 while the mRNA for VEGFRs were not detectable (FIG. 7L). The induction efficiency of NO neurons was evaluated in response to PDGF (PDGFR agonist), sunitinib (PDGFR and VEGFR antagonist), NRG1 (ERBBs agonist), and sapitinib (ERBBs antagonist) (FIG. 7M). […] To genetically confirm the role of PDGFR signaling in NO neuron induction, CRISPR-Cas9 was used to knock-out PDGFRA and PDGFRB in the enteric crestospheres and the percentage of NO neurons in stage 1 ganglioids was analyzed. NO neurons were […] in both PDGFRA and PDGFRB knock-out cultures further confirming the PP121 mechanism of action (FIG. 7O-P).
# [2] = tested on: stage 1 enteric ganglioids; conditions: MEA
# [3] = tested on: stage 2 enteric ganglioid; conditions: flow cytometry, stage 2 enteric ganglioids
# [4] = tested on: stage 1 enteric ganglioids; test: snRNA-seq comparison of PP121 treated vs control enteric ganglioids; format: cell-based, human; conditions: snRNA-seq sub-clustering
# Procedure: All tubes and pipet tips used for cell harvesting were pre-treated with 1% BSA in 1×PBS. Cells were dissociated in Accutase (Stem Cell) at 37° C., in 10 min increments, with end-to-end rotation, until single cell suspension was obtained. The cells were washed in Cell Staining Buffer (Biolegend) and stained with TotalSeq HTO antibodies for 30 min on ice. The cells were washed twice in Cell Staining Buffer and filtered through a 40 μm pipette tip strainer (BelArt). […] The libraries were sequenced on Illumina NovaSeq sequencer in the Center for Advanced Technologies (UCSF). The cell feature matrices were extracted using kallisto/bustools, and demultiplexed using seurat.
# To compare the gene expression of control and PP121 treated cell types, neuronal subtypes and NO neuron subtypes, a subset dataset of each cell type and subtype annotation was first created. For each subset, the non-imputed average expression of all genes was then calculated for the control and PP121 treated cells using the “AverageExpression” function and natural log transformed for plotting. R2 values comparing the control and PP121 natural log expression values were calculated from linear modeling using the “y˜x” formula.
# To compare PP121 treated and untreated stage 1 enteric ganglioids in single cell resolution, snRNA-seq was performed, and both datasets combined.
# VEGFRs = conditions: cited from earlier work
# [5] = tested on: hESC-derived 2D ENS cultures (NOS1+ cells); test: High-throughput screening to identify compounds that enrich NO neurons; format: cell-based, human; parameters: dose or concentration left out as unconfirmed; conditions: 1694 inhibitors, treated D15-D20, read at day 40
# Procedure: Day 15 H9 hESC-derived enteric crestospheres were dissociated into single cells (accutase, Stemcell Technologies, 07920, 30 min, 37° C.), resuspended in ENC medium and were transferred into 384-well plates. Plates were incubated for 2 hours for cells to attach. Using a pin tool, drugs from a library of 1694 inhibitors (SelleckChem, USA) were added to wells at the final concentration of […] and plates were incubated with drugs until D20, when media were changed to ENC with no drugs. At day 40, cells were fixed, stained for NOS1 and imaged using InCellAnalyzer 2000 (GE Healthcare, USA). Hits were selected based on the fold increase of the percentage of NOS1^+ cells relative to the wells treated with vehicle (DMSO).
# as §1
# PDGFRs = conditions: cited from earlier work
# EGFRs = conditions: cited from earlier work
# [6] = 6-min treatment, all five replicates
compound,measurement,setting,value
Cc1cccc(C#Cc2ccccc2)n1 [MPEP],CMMC intervals relative to the untreated condition,mouse colon,promising effects on lowering CMMC intervals
PDGF,NO neuron induction / NO neuron proportions in response to RTK ligands,[1],lower
CNC(=O)CN1CCC(Oc2cc3c(Nc4cccc(Cl)c4F)ncnc3cc2OC)CC1 [sapitinib],NO neuron induction / NO neuron proportions in response to RTK ligands,[1],no significant effect
"CNC[C@H](O)c1ccc(O)c(O)c1 [Epinephrine, epinephrine]",electrical firing of ganglioid neurons,[2],increased electrical firing
same,neuronal cFOS expression,[3],induced neuronal cFOS expression
O=C1CCC[C@@H]2[C@H]3CCCN4CCC[C@@H](CN12)[C@@H]34 [matrine],CMMC intervals relative to the untreated condition,mouse colon,promising effects on lowering CMMC intervals
O=C1CCc2ccc(OCCCCN3CCN(c4cccc(Cl)c4Cl)CC3)cc2N1 [aripiprazole],CMMC intervals relative to the untreated condition,mouse colon,promising effects on lowering CMMC intervals
Nc1ncnc2c1c(-c1cnc3[nH]ccc3c1)nn2C1CCCC1 [PP121],NO neuron induction efficiency by treatment window,"[1]; 2 μM PP121, five days at various time points, GFP signal",highest induction efficiency for cells treated during day 15-20
same,"NO neuron induction efficiency, concentration dependence","[1]; different PP121 concentrations at D15-D20, flow cytometry",dose-dependent effect
same,abundance of neuronal subtypes,[4],enriched cultures for neuronal subtypes EN D and H
same,inhibitory activity on VEGFRs,VEGFRs,known inhibitory activity
same,fold increase of the percentage of NOS1+ cells relative to vehicle (DMSO),[5],highest % NOS1^+ fold increase in this subset of compounds
same,inhibitory activity on PDGFRs,PDGFRs,known inhibitory activity
same,inhibitory activity on EGFRs,EGFRs,known inhibitory activity
Cc1cccc([C@H](C)c2cnc[nH]2)c1C [dexmedetomidine],average duration of LCEs,mouse colon; [6],increasing trend
same,total number of longitudinal contractile events (LCEs),mouse colon; [6],decrease
same,effects on LCEs after the drug removal,mouse colon; Krebs washout,reversed
same,effects on LCEs with L-NAME co-treatment,mouse colon; L-NAME co-treatment,blocked
same,effect on CMMC intervals with L-NAME,mouse colon; dexmedetomidine+L-NAME simultaneously,absent
same,CMMC intervals relative to the untreated condition,mouse colon,promising effects on lowering CMMC intervals
same,CMMC intervals,"mouse colon; sequential 6-min treatments, five sample pairs, 1 μM, drug alone",decreased CMMC intervals in four out of five colon samples
